Measured values: US20260373165A1, “PHARMACEUTICAL COMBINATIONS AND COMPOSITIONS, AND METHODS OF USE THEREOF” (SHENZHEN HIGHTIDE BIOPHARMACEUTICAL LTD., priority 2022, published 2026)

Assays:
Assay type in all cases: in vivo, mouse (C57BL/6J male, 60% HFD DIO)
[1] = Example 2: body weight and body weight change rate, combined administration of HTD1801 and dapagliflozin or empagliflozin in DIO obesity model; settings: HTD1801 250 mpk, dapagliflozin 10 mpk, empagliflozin 15 mpk p.o. QD, semaglutide 10 nmol/kg s.c. Q3D
Description: (§1) After 5-6-week-old C57BL/6J male mice were acclimatized for 1 week, the weight of each mouse was weighed, and the mice were randomly divided into a control group and a model group by taking the weight as a main index, where 12 mice in the control group were fed with common feed (CD), and the mice in the remaining model group were fed with 60% high-fat feed (60% HFD) for 10-12 weeks to construct a DIO obesity model, with the average body weight being not less than 40 g. The mice fed with 60% HFD were grabbed and acclimatized with a solvent for 3 days, where the acclimatization with a solvent was performed by oral gavage of 0.5% CMC-Na, once daily.
(§2) The food intake, the body weight, the body fat ratio, and the insulin level of the mice were respectively measured, followed by fasting blood glucose level, and the mice were randomly grouped according to Table 12 by taking the body weight as an index, and the remaining ungrouped mice were euthanized. After grouping, each group of mice was administered according to Table 12, the day of administration was defined as DO, and the administration volume of each drug was determined based on the results obtained by the calculation of 5 μL/g× mouse body weight (g).
(§3) For the combined administration group, the administration sequence and the administration time were kept consistent at each administration. The mice were continuously fed with high-fat feed during the administration period until the administration was finished. During administration, 1 food intake was measured per week (difference in feed weights at an interval of 24 h was measured); each group of mice was weighed once daily; blood was collected from the tail tip on day 16 and day 30, respectively, so as to measure fasting blood glucose levels once (blood was collected after fasting from 9:00 am to 3:[…]); on day 24 of administration (D23), the body fat ratio and the lean mass of each group of mice were measured by MRI (the measurement period was kept consistent with that before grouping); after 25 days of administration intervention (day 24), each group of mice was fasted for 6 h and subjected to OGTT (0 min, 15 min, 30 min, 60 min, 90 min, 120 min) to detect their blood glucose levels; after 29 days of administration intervention (day 28), each group of mice was fasted for 6 h and subjected to OGTT (0 min, 15 min, 30 min, 60 min, 90 min, 120 min), and meanwhile subjected to blood sampling via submaxillary vein (0 min, 15 min, 30 min, about 30 μL of blood sampled each time), and then the blood plasma was separated for detecting the insulin level by ELISA, where the separated blood plasma was more than 10 μL; the next day (D30) at the end of administration was set as the test endpoint, and the mice were fasted for 6 h in the morning and subjected to fasting blood glucose level measurement; subsequently, the mice were euthanized with CO2, blood was collected from the heart of each mouse for analysis, and each group of mice was dissected; the liver and subcutaneous, epididymal and mesenteric fat was collected, photographed and weighed, respectively.

[2] = Example 2: lean mass by MRI on day 23
Description: as §1, §2, §3
The body weight, the lean mass and the lean ratio of each animal in groups G1 to G8 were measured on day 23 and averaged for each group, and the results are shown in Table 16 below, and FIGS. 23 and 24.

[3] = Example 2: body fat mass by MRI on day 23
Description: as §1, §2, §3
The body weight, the body fat mass and the body fat ratio of each animal in groups G1 to G8 were measured on day 23 and averaged for each group, and the results are shown in Table 15 below, and FIGS. 21 and 22.

[4] = mean, day 23, HTD1801 250 mpk, dapagliflozin 10 mpk, empagliflozin 15 mpk p.o. QD

COc1ccc2cc3[n+](cc2c1OC)CCc1cc2c(cc1-3)OCO2.C[C@H](CCC(=O)[O-])[C@H]1CC[C@H]2[C@@H]3[C@@H](O)C[C@@H]4C[C@H](O)CC[C@]4(C)[C@H]3CC[C@]12C [HTD1801, berberine ursodeoxycholate]
body weight change / weight loss effect (in words) [1]: close to that of the semaglutide group, with a uniform and sustained decrease throughout the administration period
Body weight (mean) ([1]; day 0 (baseline)): 45.3 g
Body weight change rate ([1]; day 0 (baseline)): 0.0%
Body weight (mean) ([1]; day 1): 44.5 g
Body weight change rate ([1]; day 1): −1.6%
Body weight (mean) ([1]; day 2): 44.1 g
Body weight change rate ([1]; day 2): −2.5%
Body weight (mean) ([1]; day 3): 44.1 g
Body weight change rate ([1]; day 3): −2.5%
Body weight (mean) ([1]; day 4): 43.6 g
Body weight change rate ([1]; day 4): −3.7%
Body weight (mean) ([1]; day 5): 43.1 g
Body weight change rate ([1]; day 5): −4.9%
Body weight (mean) ([1]; day 6): 42.7 g
Body weight change rate ([1]; day 6): −5.7%
Body weight (mean) ([1]; day 7): 42.7 g
Body weight change rate ([1]; day 7): −5.7%
Body weight (mean) ([1]; day 8): 42.5 g
Body weight change rate ([1]; day 8): −6.2%
Body weight (mean) ([1]; day 9): 41.9 g
Body weight change rate ([1]; day 9): −7.5%
Body weight (mean) ([1]; day 10): 41.9 g
Body weight change rate ([1]; day 10): −7.4%
Body weight (mean) ([1]; day 11): 41.7 g
Body weight change rate ([1]; day 11): −7.9%
Body weight (mean) ([1]; day 12): 41.3 g
Body weight change rate ([1]; day 12): −8.7%
Body weight (mean) ([1]; day 13): 40.3 g
Body weight change rate ([1]; day 13): −10.9%
Body weight (mean) ([1]; day 14): 40.5 g
Body weight change rate ([1]; day 14): −10.7%
Body weight (mean) ([1]; day 15): 40.3 g
Body weight change rate ([1]; day 15): −11.1%
Body weight (mean) ([1]; day 16): 40.2 g
Body weight change rate ([1]; day 16): −11.2%
Body weight (mean) ([1]; day 17): 39.9 g
Body weight change rate ([1]; day 17): −11.8%
Body weight (mean) ([1]; day 18): 39.7 g
Body weight change rate ([1]; day 18): −12.3%
Body weight (mean) ([1]; day 19): 39.4 g
Body weight change rate ([1]; day 19): −12.8%
Body weight (mean) ([1]; day 20): 39.3 g
Body weight change rate ([1]; day 20): −13.2%
Body weight (mean) ([1]; day 21): 39.1 g
Body weight change rate ([1]; day 21): −13.5%
Body weight (mean) ([1]; day 22): 39.2 g
Body weight change rate ([1]; day 22): −13.4%
Body weight (mean) ([1]; day 23): 38.9 g
Body weight change rate ([1]; day 23): −14.0%
Body weight (mean) ([1]; day 24): 38.2 g
Body weight change rate ([1]; day 24): −15.6%
Body weight (mean) ([1]; day 25): 38.4 g
Body weight change rate ([1]; day 25): −15.1%
Body weight (mean) ([1]; day 26): 38.6 g
Body weight change rate ([1]; day 26): −14.6%
Body weight (mean) ([1]; day 27): 38.7 g
Body weight change rate ([1]; day 27): −14.5%
Body weight (mean) ([1]; day 28): 38.4 g
Body weight change rate ([1]; day 28): −15.1%
Body weight (mean) ([1]; day 29): 37.4 g
Body weight change rate ([1]; day 29): −17.4%
lean ratio (in words) ([2]; day 23, relative to model control group G2): slightly increased
Body weight ([2]; mean, day 23 (Table 16), HTD1801 250 mpk, dapagliflozin 10 mpk, empagliflozin 15 mpk p.o. QD): 38.9 g
Lean (lean mass) [2, 4]: 5.1 g
Lean ratio [2, 4]: 13.0%
body fat mass and body fat ratio (in words) ([3]; day 23, relative to control group G2): significantly decreased
Body weight ([3]; mean, day 23 (Table 15), HTD1801 250 mpk, dapagliflozin 10 mpk, empagliflozin 15 mpk p.o. QD): 38.9 g
Body fat ratio [3, 4]: 44.8%
Fat (body fat mass) [3, 4]: 17.5 g
